Laboratory results from patent publication US20220193047A1, “METHODS OF ENHANCING RADIOTHERAPY USING FERROPTOSIS INDUCERS AS RADIOSENSITIZERS” (THE TRUSTEES OF COLUMBIA UNIVERSITY IN THE CITY OF NEW YORK, priority 2019, published 2022).

What was measured:
U87 cells = test: Clonogenic assay with radiation, U87; assay type: cell-based
Experimental: (§1) 500 cells were seeded per well in 6-well plates in their respective growth media and incubated overnight. The next day, cells were co-treated with DMSO or compounds and radiation using a Gammacell 40 Caesium-137 irradiator (Theratronics). Plates were monitored every day using a light microscope for formation of colonies in the DMSO-treated wells. When colonies of >50 cells are clearly visible, the growth medium was discarded from all plates. The cells were washed with PBS, then fixed and stained with crystal violet solution (0.05% crystal violet, 1% formaldehyde, 1% methanol in PBS). Colonies were then directly visualized and counted.
(§2) The coefficient of drug interaction (CDI), used to compute interaction between two drugs, was used to quantify synergy between cell death inducers and radiation according to the formula CDI=AB/(A×B), where AB is the surviving fraction of the combination treatment, and A and B are the surviving fractions of the individual treatments. […]
(§3) It was then tested whether cell death enhancement of radiation with ferroptosis inducers occurred across diverse tumor cell types. […] In addition to the initial ferroptosis-sensitive HT-1080 sarcoma cell line, glioma and lung cancer cells were evaluated, due to the clinical relevance of radiation therapy for the treatment of these tumor types. […]

SK-LMS-1 cells = test: Clonogenic assay with radiation, SK-LMS-1; assay type: cell-based
Experimental: as §1, §2, §3

A549 cells = test: Clonogenic assay with radiation, A549; assay type: cell-based
Experimental: as §1, §2, §3

PC9 cells = test: Clonogenic assay with radiation, PC9; assay type: cell-based
Experimental: as §1, §2, §3

HT-1080 cells = test: Microbeam irradiation and clonogenic assay; assay type: cell-based; conditions: HT-1080, clonogenic survival
Experimental: 300-500 HT-1080 cells were plated on polypropylene film treated with 3.5 μg/cm^2 Cell-Tak adhesive (BD Biosciences). The next day, cells were stained with Hoechst 33342 for 30 min. Cells were imaged, and their center-of-gravity coordinates were registered to automatically locate them by the microbeam control program. For nuclear irradiation, protons (^1H+) were directed by a precision beam to the center of the nucleus. For cytoplasmic irradiation, protons were directed to two locations 7 μm away from the ends of the major axis of each nucleus, as previously described (Wu et al., 1999). In each case, the beam has an accuracy of ±0.2 μm with 95% efficiency. Post-irradiation, cells were trypsinized and re-plated at a density of 500 cells per well in 6-well plates for clonogenic assays.
To target the microbeam, cells were labeled with Hoechst stain and imaged. Nuclear radiation was delivered to the center of gravity of the cell nucleus, whereas cytoplasmic radiation was delivered to two sites 7 microns away from the nuclear edge along the nuclear long axis (FIG. 5A). Using this method, we first established dose responses of these cells to nuclear and cytoplasmic radiation. […] Compared to conventional photon radiation, these doses approximately correspond to 1 Gy to the nucleus and between 1-5 Gy to the cytoplasm, a therapeutically relevant dose range that is consistent with our previous experiments.

cleaved caspase-3 = test: Western blot of cleaved caspase-3; assay type: cell-based; conditions: for Cleaved caspase-3, added to radiation: HT-1080, 6 Gy, 24 h; for Cleavage of caspase-3, compound alone: HT-1080, IKE or RSL3 24 h, staurosporine 500 nM for 6 h
Experimental: 1 million cells were seeded in 10 cm dishes and treated with compounds and/or radiation on the next day. […] After quantification by Bradford, samples were mixed with 5×SDS loading buffer and separated by SDS-polyacrylamide gel electrophoresis. After transfer, membranes were blocked for 10 min in Tris-buffered saline (pH 7.4) with 1% Tween-20 (TBS-T) with 5% milk and incubated in primary antibody overnight at 4° C. Following 3× for 5 min washes in TBS-T, the membrane was incubated with secondary antibodies for 1 hr. The membrane was washed again in TBST 3× for 5 min prior to visualization using enhanced chemiluminescence (ECL Western Blotting Substrate, Pierce). Antibody for cleaved caspase 3 (Cell Signaling Technology, #9661) was used at 1:1000 and detected using a Peroxidase AffiniPure Goat Anti-Rabbit IgG (H+L) (Jackson ImmunoResearch, 111-295-144) at 1:5000 dilution.
DNA damage is a potent inducer of apoptosis. […] Despite this, some quantity of 17-kDa cleaved caspase-3 was still detectable in the Z-VAD-FMK-treated sample. To further check for potential radiation-induced apoptosis in this model at a later time point, we attempted to rescue the effects of radiation using 100 μM Z-VAD-FMK after 48, 72, and 96 h (FIG. 10).

[1] = assay type: in vivo; conditions: 40 mg/kg IKE i.p. 14 days, with or without 6 Gy radiation
[2] = system: human glioma slice cultures; test: Human glioma organotypic slice cultures, H2DCFDA ROS by flow cytometry; assay type: cell-based
Experimental: Human surgical specimens were collected from Columbia University Medical Center operating theaters in accordance with Institutional Review Board protocols. Surgical specimens were deidentified, placed in a sterile 50 mL conical tube containing ice-cold sucrose solution (210 mM sucrose, 10 mM glucose, 2.5 mM KCl, 1.25 mM NaH2PO4, 0.5 mM CaCl2), 7 mM MgCl2 and 26 mM NaHCO3). Tissue specimens were let rest in the sucrose solution for 20 minutes. Tissue specimens were then cut into 300 μm sections using a Mcllwain Tissue Chopper. Sections after cutting were let rest in the sucrose solution for 20 minutes. Then the tissue sections were transferred onto Millicell cell culture inserts ([…], 30 mm diameter) and placed in 6-well plates containing 1.5 mL of media. The media consisted of DMEM/F12 plus N−2 Supplement. […]
To further study the potential of combining small-molecule ferroptosis inducers and radiation for human therapeutic use, ex vivo samples of human glioma, which have been immediately cut from freshly resected tumors and grown as organotypic slice cultures, were used as previously described (Parker et al., 2017). De-identified patient information for these tumor samples are recorded in Table 4. […] Tumor cell viability within slices was not assessed, as the number of tumor cells embedded in each slice cannot be normalized between slices.

| SMILES | Highest observed coefficient of Drug Interaction (CDI) in combination with IR (U87 cells) | Highest observed coefficient of Drug Interaction (CDI) in combination with IR (SK-LMS-1 cells) | Highest observed coefficient of Drug Interaction (CDI) in combination with IR (A549 cells) | Highest observed coefficient of Drug Interaction (CDI) in combination with IR (PC9 cells) | Synergy with cytoplasmic microbeam radiation (HT-1080 cells) | Synergy with nuclear microbeam radiation (HT-1080 cells) | Cleaved caspase-3, added to radiation (cleaved caspase-3) | Cleavage of caspase-3, compound alone (cleaved caspase-3) | Tolerability (weight loss) [1] | ROS generation (H2DCFDA), combination with radiation vs control ([2]; 10 μM IKE, 2 Gy radiation, 24 hours, three responsive slice cultures) | ROS accumulation with IKE and radiation, ferrostatin-1 co-treatment ([2]; 10 μM ferrostatin-1) |
| --- | --- | --- | --- | --- | --- | --- | --- | --- | --- | --- | --- |
| COC(=O)c1ccc([C@@H]2c3[nH]c4ccccc4c3C[C@@H](C(=O)OC)N2C(=O)CCl)cc1 [RSL3, Ras Synthetic Lethal 3] | 0.31 | 0.31 | 0.31 | 0.64 | synergized strongly | no synergy | did not further increase the amount of cleaved caspase-3 | did not induce detectable cleavage of caspase-3 |  |  |  |
| CC(C)Oc1ccc(C(=O)Cn2ccnc2)cc1-n1c(CN2CCN(C(=O)COc3ccc(Cl)cc3)CC2)nc2ccccc2c1=O [IKE, imidazole ketone erastin] | 0.65 | 0.48 | 0.30 | 0.70 | synergized strongly |  | did not further increase the amount of cleaved caspase-3 | did not induce detectable cleavage of caspase-3 | well tolerated | significant enhancement of ROS generation |  |
| CCOC(=O)c1ccc(NC2CCCCC2)c(N)c1 [ferrostatin-1] |  |  |  |  |  |  |  |  |  |  | partially suppressible |
